Source: paper PMC12406203 (Journal of Medicinal Chemistry, 2025)

Tests used:
Experiment in all cases: KINOMEscan
Type in all cases: binding
CSF1R = molecular target: T1, CSF1R (Homo sapiens, UniProt P07333)
T1 construct: purchased Eurofins DiscoverX, LLC; host or cells: E. coli (T7 phage) or HEK-293
Procedure: (§1) The kinase inhibition profile of compounds 94 and 95 was assessed against 103 protein kinases by Eurofins DiscoverX, LLC., using the KINOMEscan assay. Kinase-tagged T7 phage strains were grown in parallel in 24-well blocks in an E. coli host derived from the BL21 strain. E. coli were grown to log-phase and infected with T7 phage from a frozen stock (multiplicity of infection = 0.4) and incubated with shaking at 32 °C until lysis (90–150 min). The lysates were centrifuged (6000g) and filtered (0.2 μm) to remove cell debris. The remaining kinases were produced in HEK-293 cells and subsequently tagged with DNA for qPCR detection. […] The liganded beads were blocked with excess biotin and washed with blocking buffer (SeaBlock (Pierce), 1% BSA, 0.05% Tween 20, 1 mM DTT) to remove unbound ligand and to reduce nonspecific phage binding. […] Test compounds were prepared as 100× stocks in 100% DMSO and directly diluted into the assay. All reactions were performed in polypropylene 384-well plates in a final volume of 0.02 mL. […] The kinase concentration in the eluates was measured by qPCR.
(§2) The compound(s) were screened at the concentration(s) requested, and results for primary screen binding interactions are reported as RA (%), where lower numbers indicate stronger hits in the matrix. RA=(testcompoundsignal−PCsignal/NCsignal−PCsignal)×100

CDK11 = molecular target: T2, CDK11 (Homo sapiens, UniProt Q9BWU1)
T2 construct: purchased Eurofins DiscoverX, LLC; host or cells: E. coli BL21-derived (T7 phage) or HEK-293
T2 sequence (Q9BWU1 whole entry): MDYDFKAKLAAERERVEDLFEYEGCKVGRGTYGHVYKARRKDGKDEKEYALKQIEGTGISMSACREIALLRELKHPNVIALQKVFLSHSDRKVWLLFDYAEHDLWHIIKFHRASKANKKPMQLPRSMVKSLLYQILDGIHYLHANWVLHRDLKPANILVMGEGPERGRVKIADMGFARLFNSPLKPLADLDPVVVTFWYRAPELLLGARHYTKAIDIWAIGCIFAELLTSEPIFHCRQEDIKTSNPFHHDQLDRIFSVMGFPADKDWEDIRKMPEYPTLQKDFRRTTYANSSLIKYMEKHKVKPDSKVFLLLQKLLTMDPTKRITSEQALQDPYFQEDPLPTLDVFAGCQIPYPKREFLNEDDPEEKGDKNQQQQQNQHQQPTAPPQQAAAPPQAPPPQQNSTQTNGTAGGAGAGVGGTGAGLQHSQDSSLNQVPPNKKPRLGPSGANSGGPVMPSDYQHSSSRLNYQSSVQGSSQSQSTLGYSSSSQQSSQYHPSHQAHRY
Procedure: as §1, §2

PRKCE = molecular target: T3, PRKCE (Homo sapiens, UniProt Q02156)
T3 construct: purchased Eurofins DiscoverX, LLC; host or cells: E. coli BL21-derived host (T7 phage) or HEK-293
T3 sequence (Q02156 1-737): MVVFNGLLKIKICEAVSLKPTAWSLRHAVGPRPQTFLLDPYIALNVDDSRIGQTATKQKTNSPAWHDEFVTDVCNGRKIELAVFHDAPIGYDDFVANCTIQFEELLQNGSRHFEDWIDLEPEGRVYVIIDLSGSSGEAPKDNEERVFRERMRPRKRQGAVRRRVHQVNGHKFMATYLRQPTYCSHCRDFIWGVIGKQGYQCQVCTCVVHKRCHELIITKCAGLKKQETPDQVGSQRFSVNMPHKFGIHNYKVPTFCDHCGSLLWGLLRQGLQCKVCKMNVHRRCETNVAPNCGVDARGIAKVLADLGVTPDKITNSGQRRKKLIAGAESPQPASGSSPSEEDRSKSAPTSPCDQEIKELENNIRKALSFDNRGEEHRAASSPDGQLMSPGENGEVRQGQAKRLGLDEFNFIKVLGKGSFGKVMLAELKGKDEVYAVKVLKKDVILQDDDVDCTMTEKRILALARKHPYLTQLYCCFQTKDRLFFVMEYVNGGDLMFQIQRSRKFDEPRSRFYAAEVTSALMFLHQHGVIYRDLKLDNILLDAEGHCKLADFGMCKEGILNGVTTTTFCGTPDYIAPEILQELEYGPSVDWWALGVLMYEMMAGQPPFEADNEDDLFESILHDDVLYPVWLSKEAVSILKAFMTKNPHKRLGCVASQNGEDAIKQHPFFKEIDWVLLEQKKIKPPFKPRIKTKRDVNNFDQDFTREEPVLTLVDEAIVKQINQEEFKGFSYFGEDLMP
Procedure: as §1, §2

PIM1 = molecular target: T4, PIM1 (Homo sapiens, UniProt P11309)
T4 construct: purchased Eurofins DiscoverX, LLC; host or cells: E. coli BL21-derived host (T7 phage) or HEK-293
T4 sequence (P11309 whole entry): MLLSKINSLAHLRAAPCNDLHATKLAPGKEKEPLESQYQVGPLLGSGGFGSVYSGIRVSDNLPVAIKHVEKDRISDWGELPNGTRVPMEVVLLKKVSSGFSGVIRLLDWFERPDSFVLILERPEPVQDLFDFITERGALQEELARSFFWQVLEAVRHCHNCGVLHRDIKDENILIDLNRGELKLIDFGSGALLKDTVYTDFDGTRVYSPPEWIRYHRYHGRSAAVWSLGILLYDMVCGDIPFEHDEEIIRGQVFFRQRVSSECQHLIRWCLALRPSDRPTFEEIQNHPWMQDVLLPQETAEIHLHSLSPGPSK
Procedure: as §1, §2

CDK3 = molecular target: T5, CDK3 (Homo sapiens, UniProt Q00526)
T5 construct: purchased Eurofins DiscoverX, LLC; host or cells: E. coli BL21-derived (T7 phage) or HEK-293
T5 sequence (Q00526 whole entry): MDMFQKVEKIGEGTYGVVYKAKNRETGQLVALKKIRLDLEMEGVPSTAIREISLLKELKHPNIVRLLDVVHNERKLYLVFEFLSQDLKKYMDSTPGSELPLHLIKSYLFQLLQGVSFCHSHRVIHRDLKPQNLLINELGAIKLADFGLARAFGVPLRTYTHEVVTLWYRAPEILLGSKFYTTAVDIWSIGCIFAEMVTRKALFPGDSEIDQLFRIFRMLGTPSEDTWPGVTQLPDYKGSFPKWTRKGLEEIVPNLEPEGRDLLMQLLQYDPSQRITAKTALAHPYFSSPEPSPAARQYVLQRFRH
Procedure: as §1, §2

MEK2 = molecular target: T6, MEK2 (Homo sapiens, UniProt P36507)
T6 construct: purchased Eurofins DiscoverX, LLC; host or cells: E. coli (BL21-derived, T7 phage) or HEK-293
T6 sequence (P36507 whole entry): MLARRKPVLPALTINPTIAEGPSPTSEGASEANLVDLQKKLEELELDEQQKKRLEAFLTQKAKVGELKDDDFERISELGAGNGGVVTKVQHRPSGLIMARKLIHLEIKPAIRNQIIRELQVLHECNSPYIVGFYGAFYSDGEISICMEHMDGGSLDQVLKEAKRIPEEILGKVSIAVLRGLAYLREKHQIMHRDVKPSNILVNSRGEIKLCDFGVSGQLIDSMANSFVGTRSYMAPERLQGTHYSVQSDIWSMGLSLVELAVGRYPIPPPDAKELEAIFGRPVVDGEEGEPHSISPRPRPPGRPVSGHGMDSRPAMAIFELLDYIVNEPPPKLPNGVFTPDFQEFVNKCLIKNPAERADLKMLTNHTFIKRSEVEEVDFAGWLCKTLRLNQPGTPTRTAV
Procedure: as §1, §2

AKT1 = molecular target: T7, AKT1 (Homo sapiens, UniProt P31749)
T7 construct: purchased Eurofins DiscoverX, LLC; host or cells: E. coli BL21-derived (T7 phage) or HEK-293
T7 sequence (P31749 whole entry): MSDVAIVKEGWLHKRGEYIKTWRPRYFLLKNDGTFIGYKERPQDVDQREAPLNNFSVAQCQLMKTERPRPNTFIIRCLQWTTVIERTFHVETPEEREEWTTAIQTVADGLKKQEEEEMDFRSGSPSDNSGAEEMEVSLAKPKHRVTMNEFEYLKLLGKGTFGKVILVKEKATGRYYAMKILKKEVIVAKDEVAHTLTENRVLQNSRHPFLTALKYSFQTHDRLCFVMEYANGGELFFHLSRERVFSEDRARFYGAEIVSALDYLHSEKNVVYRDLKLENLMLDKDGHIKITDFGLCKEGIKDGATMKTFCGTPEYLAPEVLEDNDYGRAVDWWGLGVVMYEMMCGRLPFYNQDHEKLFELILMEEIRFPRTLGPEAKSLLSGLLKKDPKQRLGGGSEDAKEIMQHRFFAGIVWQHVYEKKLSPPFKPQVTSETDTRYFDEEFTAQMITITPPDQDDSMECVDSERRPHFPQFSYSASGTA
Procedure: as §1, §2

IKKα = molecular target: T8, IKKα (Homo sapiens, UniProt O15111)
T8 construct: purchased Eurofins DiscoverX, LLC; host or cells: E. coli (T7 phage) or HEK-293
T8 sequence (O15111 1-745): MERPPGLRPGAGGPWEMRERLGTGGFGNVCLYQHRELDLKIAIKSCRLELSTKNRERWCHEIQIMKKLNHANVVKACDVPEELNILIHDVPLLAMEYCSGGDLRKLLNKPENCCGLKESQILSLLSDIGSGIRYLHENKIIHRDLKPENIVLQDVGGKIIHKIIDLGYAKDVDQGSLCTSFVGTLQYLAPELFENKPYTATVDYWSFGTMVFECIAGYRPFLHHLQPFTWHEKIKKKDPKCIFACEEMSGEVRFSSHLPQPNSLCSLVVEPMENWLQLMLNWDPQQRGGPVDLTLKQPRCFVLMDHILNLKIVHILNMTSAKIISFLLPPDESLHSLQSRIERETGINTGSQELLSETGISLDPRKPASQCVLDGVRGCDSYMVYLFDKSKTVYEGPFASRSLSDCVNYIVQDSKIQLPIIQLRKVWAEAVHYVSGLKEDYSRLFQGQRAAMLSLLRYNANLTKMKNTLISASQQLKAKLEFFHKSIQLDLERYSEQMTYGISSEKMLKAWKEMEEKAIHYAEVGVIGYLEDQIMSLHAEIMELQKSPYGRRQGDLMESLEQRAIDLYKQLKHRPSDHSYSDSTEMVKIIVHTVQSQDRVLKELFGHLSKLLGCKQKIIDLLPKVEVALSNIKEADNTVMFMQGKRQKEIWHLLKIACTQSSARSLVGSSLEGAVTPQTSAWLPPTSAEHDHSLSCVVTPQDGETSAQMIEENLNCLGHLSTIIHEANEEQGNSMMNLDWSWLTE
Procedure: as §1, §2

AKT2 = molecular target: T9, AKT2 (Homo sapiens, UniProt P31751)
T9 construct: purchased Eurofins DiscoverX, LLC; host or cells: E. coli BL21-derived (T7 phage) or HEK-293
T9 sequence (P31751 whole entry): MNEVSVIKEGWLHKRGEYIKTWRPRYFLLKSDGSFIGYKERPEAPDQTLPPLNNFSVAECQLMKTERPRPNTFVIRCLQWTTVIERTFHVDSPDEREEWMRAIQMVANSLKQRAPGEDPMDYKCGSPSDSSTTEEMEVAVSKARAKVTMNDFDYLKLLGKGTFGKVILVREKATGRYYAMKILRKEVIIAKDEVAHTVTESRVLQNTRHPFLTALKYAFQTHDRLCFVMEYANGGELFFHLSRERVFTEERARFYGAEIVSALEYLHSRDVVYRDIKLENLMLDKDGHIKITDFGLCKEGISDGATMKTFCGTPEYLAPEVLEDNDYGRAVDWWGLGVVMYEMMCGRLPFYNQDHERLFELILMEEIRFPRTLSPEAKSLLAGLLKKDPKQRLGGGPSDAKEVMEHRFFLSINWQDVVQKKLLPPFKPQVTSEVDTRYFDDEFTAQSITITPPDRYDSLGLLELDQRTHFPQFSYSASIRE
Procedure: as §1, §2

T1 sequence (P07333 20-972): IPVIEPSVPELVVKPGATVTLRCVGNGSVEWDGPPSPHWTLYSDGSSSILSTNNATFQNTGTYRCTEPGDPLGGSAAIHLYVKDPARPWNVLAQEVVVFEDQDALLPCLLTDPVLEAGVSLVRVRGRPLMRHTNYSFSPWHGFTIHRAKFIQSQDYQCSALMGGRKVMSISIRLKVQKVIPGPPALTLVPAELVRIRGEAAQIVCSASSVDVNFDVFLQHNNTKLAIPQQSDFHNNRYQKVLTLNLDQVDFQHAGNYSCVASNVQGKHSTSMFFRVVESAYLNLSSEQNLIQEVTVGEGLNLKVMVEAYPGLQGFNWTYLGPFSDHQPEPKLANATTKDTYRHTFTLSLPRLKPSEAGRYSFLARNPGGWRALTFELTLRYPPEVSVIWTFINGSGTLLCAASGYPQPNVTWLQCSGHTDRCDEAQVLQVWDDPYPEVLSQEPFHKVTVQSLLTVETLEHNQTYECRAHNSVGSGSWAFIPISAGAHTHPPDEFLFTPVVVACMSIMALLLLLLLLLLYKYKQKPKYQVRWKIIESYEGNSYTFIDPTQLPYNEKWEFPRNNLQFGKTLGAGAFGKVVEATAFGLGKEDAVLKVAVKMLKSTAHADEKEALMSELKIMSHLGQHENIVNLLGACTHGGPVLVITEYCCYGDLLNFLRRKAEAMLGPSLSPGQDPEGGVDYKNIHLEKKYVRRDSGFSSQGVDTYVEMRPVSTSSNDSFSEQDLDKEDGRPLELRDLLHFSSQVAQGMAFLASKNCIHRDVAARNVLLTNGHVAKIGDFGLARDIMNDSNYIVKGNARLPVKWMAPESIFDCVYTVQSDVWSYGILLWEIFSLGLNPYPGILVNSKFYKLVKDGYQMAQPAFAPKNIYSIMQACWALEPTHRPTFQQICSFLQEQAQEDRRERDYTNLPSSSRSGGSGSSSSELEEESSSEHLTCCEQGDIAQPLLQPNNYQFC

SMILES: CC(C)Cn1ncc2cc(Cc3ccc(F)cc3F)c(C(=O)NCCN(C)C)cc21 [Compound 94, 5-(2,4-Difluorobenzyl)-N-(2-(dimethylamino)ethyl)-1-isobutyl-1H-indazole-6-carboxamide]
- RA @ 1000nM (CSF1R): 100%
- RA @ 10000nM (CSF1R): 86%
- RA @ 1000nM (CDK11): 100%
- RA @ 10000nM (CDK11): 89%
- RA @ 1000nM (PRKCE): 80%
- RA @ 10000nM (PRKCE): 80%
- RA @ 1000nM (PIM1): 95%
- RA @ 10000nM (PIM1): 100%
- RA @ 1000nM (CDK3): 100%
- RA @ 10000nM (CDK3): 1.3%
- RA @ 1000nM (MEK2): 86%
- RA @ 10000nM (MEK2): 80%
- RA @ 1000nM (AKT1): 100%
- RA @ 10000nM (AKT1): 75%
- RA @ 1000nM (IKKα): 82%
- RA @ 10000nM (IKKα): 87%
- RA @ 1000nM (AKT2): 89%
- RA @ 10000nM (AKT2): 76%

SMILES: CN(C)CCNC(=O)c1cc2c(cnn2CC2CCCCC2)cc1Cc1ccc(F)cc1F [Compound 95, 1-(Cyclohexylmethyl)-5-(2,4-difluorobenzyl)-N-(2-(dimethylamino)ethyl)-1H-indazole-6-carboxamide]
- RA @ 1000nM (CSF1R): 100%
- RA @ 10000nM (CSF1R): 79%
- RA @ 1000nM (CDK11): 92%
- RA @ 10000nM (CDK11): 100%
- RA @ 1000nM (PRKCE): 79%
- RA @ 10000nM (PRKCE): 76%
- RA @ 1000nM (PIM1): 100%
- RA @ 10000nM (PIM1): 94%
- RA @ 1000nM (CDK3): 100%
- RA @ 10000nM (CDK3): 100%
- RA @ 1000nM (MEK2): 95%
- RA @ 10000nM (MEK2): 100%
- RA @ 1000nM (AKT1): 100%
- RA @ 10000nM (AKT1): 100%
- RA @ 1000nM (IKKα): 92%
- RA @ 10000nM (IKKα): 75%
- RA @ 1000nM (AKT2): 100%
- RA @ 10000nM (AKT2): 88%
